Assay results taken from paper PMC7777204, “Locking mixed-lineage kinase domain-like protein in its auto-inhibited state prevents necroptosis” (Proceedings of the National Academy of Sciences of the …, 2020).

Legend:
[1] = biological target: T1, human MLKL executioner domain (WT) (Homo sapiens, UniProt Q8NB16); assay: Functional NMR assay (detachment of α-helix 6), WT; format: biochemical; conditions: WT
T1 construct: 80 µM MLKL N-terminal executioner domain (residues 1 to 154) was used; GST (thrombin cleavage site) (cleaved yes)
T1 sequence (Q8NB16 1-154): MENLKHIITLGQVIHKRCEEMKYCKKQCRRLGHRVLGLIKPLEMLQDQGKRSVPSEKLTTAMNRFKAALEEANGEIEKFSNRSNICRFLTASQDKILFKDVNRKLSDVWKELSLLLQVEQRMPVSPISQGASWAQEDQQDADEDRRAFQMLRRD
Source text: To test the significance of the additional interaction between α-helix 6 and the four-helix bundle provided by the xanthine compounds stacking to the phenyl ring of Phe148, we used a described functional NMR assay ([12]). Binding of phytic acid (IP6) and the detergent β-D-nonylmaltoside (NM) led to the detachment of α-helix 6, which can be monitored in ^1H,^15N-correlation spectra by the altered chemical shift of the Hε1–Nε1 correlation of Trp133 and the backbone N–H correlation of Ala141 ([12]). […] Adding 12 mM NM or 500 µM IP6 led to the appearance of a second very weak peak reporting on the detached α-helix 6 with a population of the activated state (pact) of 1% and 4%, respectively (Fig. 3). […] Combining 12 mM NM and 500 µM IP6 induced a dramatic increase of the population of the detached state (pact 86%). […] To further validate the importance of the π–π stacking interaction between the xanthine and Phe148 in α-helix 6, we carried out the functional NMR assay with the F148A-mutated variant of MLKL. The removal of the phenyl group induced significant CSPs localized in close proximity to the mutation site, due to the removal of ring currents and, therefore, strong electronic changes. […] MLKL F148A was more sensitive to the addition of 12 mM NM, 500 µM IP6, or the combination thereof. In the spectra in the presence of NM and the combination of NM and IP6, a third Trp133 peak appeared, most likely reporting on a state similar to the active state. […] Thus, the stacking interaction of the xanthine core to Phe148 is vital for the inhibitory activity of these MLKL inhibitors.
Fig. 3. (A and B) The region of the NMR ^1H,^15N-correlation spectra of the MLKL executioner domain (protein concentration: 80 µM) containing the cross-peaks of Trp133 Nε1–Hε1 in the auto-inhibited state where α-helix 6 is attached to the four-helix bundle (inact. state) and in the active, detached state (act. state) are shown. The unliganded state is depicted in black, with 12 mM NM in cyan; 500 µM IP6 in orange; 500 µM Cpd 3 in blue; 12 mM NM and 500 µM IP6 in red; and 12 mM NM, 500 µM IP6, and 500 µM Cpd 3 in green. The spectra depicted in A are measured with the WT protein and in B with the F148A variant. […] Dark gray bars correspond to the WT, while light gray bars correspond to the F148A variant. The asterisk means that no active conformation could be detected. Double asterisks indicate data not determined.
For the functional NMR assay ^1H,^15N-correlation spectra were recorded on a Bruker Avance III HD 600-MHz NMR spectrometer equipped with a cryogenic QCI probe in 2.5-mm NMR tubes at 298 K. Spectra were recorded with 64 complex points in the indirect dimension, 96 scans, and an interscan delay of 2 s. For the samples, 80 µM MLKL N-terminal executioner domain (residues 1 to 154) was used in a 20 mM sodium phosphate buffer at pH 7.5 containing 150 mM sodium chloride and 1 mM TCEP. For the different conditions, either 500 µM IP6, 12 mM NM, or a combination of the two were used. The xanthine compounds were tested at 500 µM, while NSA, due to limited solubility, was tested only at 200 µM, which is sufficient to saturate MLKL. Spectra were analyzed, and peaks were integrated in CcpNnmr analysis ([39]).

U937 cells = assay: U937 cytotox assay; format: cell-based; conditions: Homo sapiens, U-937, without huTNFα and zVAD-fmk, read-out: U937 TOX IC50
Procedure: MLKL antagonists were also evaluated in a necroptosis assay with U937 cells ([26]) (ATCC catalog no. CRL-1593.2). The assay procedure with U937 cells was as described for the Jurakt FADD^−/− necroptosis assay with the following modifications: 8,000 cells were seeded per well, and, in addition to the recombinant huTNFα, cells were also incubated in the presence of 10 µM (f.c.) carbobenzoxy-valyl-alanyl-aspartyl-[O-methyl]-fluoromethylketone (zVAD-fmk) (Enzo Life Sciences catalog no. ALX-260-020). Low controls (0% CTL) were defined as cells treated with 100 ng/mL recombinant huTNFα plus 10 µM zVAD-fmk.
MLKL antagonists were tested in cytotox assays by using Jurkat FADD^−/− and U937 cells according to the assay procedures described for the necroptosis assays, but without treatment with recombinant huTNFα and/or zVAD-fmk. High controls (100% CTL, no effect) were defined as cells treated with DMSO, and low controls (0% CTL) were defined as medium without cells (0% CTL, maximal effect).
All cellular assays were done for Cpd 1, Cpd 2, Cpd 3, Cpd 4, and Cpd 5 in duplicate and in quadruplet for NSA.

Population of the activated state (pact), α-helix 6 detached ([1]; 80 µM protein, 12 mM NM + 500 µM IP6 + 500 µM compound, without compound pact 86%): 19%
Induction of the active state by compound alone ([1]; compound alone (Cpd 3 500 µM, NSA 200 µM), no NM/IP6): did not induce the active state
SMILES: Cn1c(=O)c2c(nc(S(C)(=O)=O)n2C)n(CC#Cc2cccc(O)c2)c1=O [Cpd 3]
IC50 (U937 cells): 25.5 µM
